Tested on: APOE*3Leiden mice
Experiment: Effects on lipid metabolism in vivo, APOE*3Leiden mice on Western-type diet
Conditions: female heterozygous APOE*3Leiden mice, oral admix to Western-type diet, plasma after 4 hour fast, delta = level at t=0 minus level at t=3, doses 565 (Group 2), 497 (Group 3), 1 (Group 4) mg/kg bw/d
Description: The invented compositions were tested in an animal model as described below.
Female heterozygous APOE*3Leiden mice was used, and housed during the experiment in macrolon cages (three or four mice per cage), in clean-conventional animal rooms (relative humidity 50-60%, temperature ˜21° C., light cycle 7 am to 7 pm). Individual animals were marked by ear punch-holes. Mice were supplied with food and acidified tap water ad libitum.
The mice received a semi-synthetic modified Western-type diet (WTD) as described by Nishina et al (J Lipid Res 1990; 31: 859), containing cholesterol (0.25% w/w, final concentration) and 15% cacaobutter.
All test compounds were administered orally as admix to the Western-type diet. The lyophilized diet chunks were stored in vacuum bags in the dark in an alarm-secured −20° C. room. The diets on the cages of the mice were changed twice a week.
APOE*3Leiden mice were put on a semi-synthetic Western-type diet (WTD, 15% cocoa butter, 40% sucrose and 0.25% cholesterol; all w/w). After a 4 weeks run-in period low-responder mice were removed from the study and the remaining mice were sub-divided into five groups of 10 mice each, matched for plasma cholesterol, triglycerides, free fatty acids and age (t=0) […]
After 3 weeks of treatment (t=3 weeks) blood samples were taken after 4 hour-fast period and plasma total cholesterol (TC), total triglycerides (TG) were measured. […]

SMILES: CC(C)OC(=O)C(C)(C)Oc1ccc(C(=O)c2ccc(Cl)cc2)cc1 [Group 4, Fenofibrate]
- Delta cholesterol plasma levels (delta TC) after treatment period of 3 weeks, Mean (delta TC): 4.71
- Delta triglyceride plasma levels (delta TG) after treatment period of 3 weeks, Mean (delta TG): 1.16

From patent US20100266681A1, “FATTY ACID ALCOHOLS” (priority 2006, published 2010)
